From ChEMBL document CHEMBL1122521, “Nucleic acid related compounds. 47. Synthesis and biological activities of pyrimidine and purine "acyclic" nucleoside analogues” (J Med Chem, 1984)
≈ marks a conversion by molar mass, not a printed value.

Test system: Human alphaherpesvirus 2
Assay: Concentration required to reduce cytopathogenicity of Herpes simplex virus type 2 (strain G) by 50% in primary rabbit kidney (PRK) cells
Type: functional
Settings: not given

| Structure (SMILES) | ID50 [µg/mL] |
| --- | --- |
| Nc1nc2c(nc(O)n2COCCO)c(=O)[nH]1 | 25 (≈ 104 µM) |
| Nc1nc(Cl)c2ncn(COCCO)c2n1 | 20 (≈ 82.1 µM) |
| O=c1[nH]c(=O)n(COCCO)cc1[N+](=O)[O-] | >400 |
| Nc1nc2c(ncn2COCCO)c(=O)[nH]1 [ACYCLOVIR] | 0.04 (≈ 0.178 µM) |
| O=c1[nH]c(=O)n(COCCO)cc1Cl | >400 |
| Nc1nc(O)c2nc(N3CCCCC3)n(COCCO)c2n1 | 150 (≈ 486 µM) |
| CC(=O)OCCOCn1cnc2c(Cl)nc(N)nc21 | 20 (≈ 70 µM) |
| O=c1[nH]c(=O)n(COCCO)cc1/C=C/Br | >400 |

Test system: Human alphaherpesvirus 1
Assay: Concentration required to reduce cytopathogenicity of Herpes simplex virus type 1 (strain KOS) by 50% in primary rabbit kidney (PRK) cells
Type: functional
Settings: not given

| Structure (SMILES) | ID50 [µg/mL] |
| --- | --- |
| Nc1nc2c(nc(O)n2COCCO)c(=O)[nH]1 | 15 (≈ 62.2 µM) |
| Nc1nc(Cl)c2ncn(COCCO)c2n1 | 2 (≈ 8.21 µM) |
| O=c1[nH]c(=O)n(COCCO)cc1[N+](=O)[O-] | >400 |
| Nc1nc2c(ncn2COCCO)c(=O)[nH]1 [ACYCLOVIR] | 0.05 (≈ 0.222 µM) |
| O=c1[nH]c(=O)n(COCCO)cc1Cl | >400 |
| Nc1nc(O)c2nc(N3CCCCC3)n(COCCO)c2n1 | 70 (≈ 227 µM) |
| CC(=O)OCCOCn1cnc2c(Cl)nc(N)nc21 | 20 (≈ 70 µM) |
| O=c1[nH]c(=O)n(COCCO)cc1/C=C/Br | >400 |

Test system: L1210
Assay: Inhibitory concentration required to reduce [3H-methyl]-dThd C incorporation into cellular DNA by 50% in Murine Leukemia L1210 cells
Type: functional
Settings: Mus musculus, read-out: ID50 (the source's name)

| Structure (SMILES) | IC50 [µg/mL] |
| --- | --- |
| Nc1nc2c(nc(O)n2COCCO)c(=O)[nH]1 | > 500 |
| Nc1nc(Cl)c2ncn(COCCO)c2n1 | > 1000 |
| O=c1[nH]c(=O)n(COCCO)cc1[N+](=O)[O-] | > 1000 |
| Nc1nc2c(ncn2COCCO)c(=O)[nH]1 [ACYCLOVIR] | 367 (≈ 1630 µM) |
| O=c1[nH]c(=O)n(COCCO)cc1Cl | > 1000 |
| Nc1nc(O)c2nc(N3CCCCC3)n(COCCO)c2n1 | > 500 |
| CC(=O)OCCOCn1cnc2c(Cl)nc(N)nc21 | > 1000 |
| O=c1[nH]c(=O)n(COCCO)cc1/C=C/Br | > 1000 |

Test system: L1210
Assay: Inhibitory concentration required to reduce [3H1',2']dUrd incorporation into cellular DNA by 50% in Murine Leukemia L1210 cells
Type: functional
Settings: Mus musculus, read-out: ID50 (the source's name)

| Structure (SMILES) | IC50 [µg/mL] |
| --- | --- |
| Nc1nc(Cl)c2ncn(COCCO)c2n1 | > 1000 |
| O=c1[nH]c(=O)n(COCCO)cc1[N+](=O)[O-] | > 1000 |
| Nc1nc2c(ncn2COCCO)c(=O)[nH]1 [ACYCLOVIR] | 50 (≈ 222 µM) |
| O=c1[nH]c(=O)n(COCCO)cc1Cl | > 1000 |
| Nc1nc(O)c2nc(N3CCCCC3)n(COCCO)c2n1 | > 500 |
| CC(=O)OCCOCn1cnc2c(Cl)nc(N)nc21 | > 1000 |
| O=c1[nH]c(=O)n(COCCO)cc1/C=C/Br | > 1000 |

Test system: L1210
Assay: Inhibitory concentration required to reduce [3H1',2']dUrd incorporation into cellular DNA by 50 %
Type: functional
Settings: Mus musculus, read-out: ID50 (the source's name)

| Structure (SMILES) | IC50 [µg/mL] |
| --- | --- |
| Nc1nc2c(nc(O)n2COCCO)c(=O)[nH]1 | > 500 |

Test system: L1210
Assay: Inhibitory concentration required to reduce cell growth of Murine Leukemia L1210 cells
Type: functional
Settings: Mus musculus, read-out: ID50 (the source's name)

| Structure (SMILES) | IC50 [µg/mL] |
| --- | --- |
| Nc1nc2c(nc(O)n2COCCO)c(=O)[nH]1 | > 500 |
| Nc1nc(Cl)c2ncn(COCCO)c2n1 | 69 (≈ 283 µM) |
| O=c1[nH]c(=O)n(COCCO)cc1[N+](=O)[O-] | 447 (≈ 1930 µM) |
| Nc1nc2c(ncn2COCCO)c(=O)[nH]1 [ACYCLOVIR] | 13 (≈ 57.7 µM) |
| O=c1[nH]c(=O)n(COCCO)cc1Cl | > 1000 |
| Nc1nc(O)c2nc(N3CCCCC3)n(COCCO)c2n1 | > 500 |
| CC(=O)OCCOCn1cnc2c(Cl)nc(N)nc21 | 91 (≈ 319 µM) |
| O=c1[nH]c(=O)n(COCCO)cc1/C=C/Br | > 1000 |

Test system: not listed separately
Assay: Inhibitory concentration required to reduce 2-deoxyuridine ([3H-1'2']dUrd) incorporation into DNA of Primary Rabbit kidney (PRK) cell cultures
Type: functional
Settings: Oryctolagus cuniculus, read-out: ID50 (the source's name)

| Structure (SMILES) | IC50 [µg/mL] |
| --- | --- |
| Nc1nc2c(nc(O)n2COCCO)c(=O)[nH]1 | ≥ 100 |
| Nc1nc(Cl)c2ncn(COCCO)c2n1 | > 100 |
| Nc1nc2c(ncn2COCCO)c(=O)[nH]1 [ACYCLOVIR] | 13 (≈ 57.7 µM) |
| CC(=O)OCCOCn1cnc2c(Cl)nc(N)nc21 | 71 (≈ 249 µM) |

Test system: not listed separately
Assay: Inhibitory concentration required to reduce incorporation of 2-deoxythymidine (dThd) into DNA of Primary Rabbit kidney (PRK) cell cultures
Type: functional
Settings: Oryctolagus cuniculus, read-out: ID50 (the source's name)

| Structure (SMILES) | IC50 [µg/mL] |
| --- | --- |
| Nc1nc2c(nc(O)n2COCCO)c(=O)[nH]1 | 48 (≈ 199 µM) |
| Nc1nc(Cl)c2ncn(COCCO)c2n1 | 50 (≈ 205 µM) |
| O=c1[nH]c(=O)n(COCCO)cc1[N+](=O)[O-] | > 400 |
| Nc1nc2c(ncn2COCCO)c(=O)[nH]1 [ACYCLOVIR] | 12 (≈ 53.3 µM) |
| O=c1[nH]c(=O)n(COCCO)cc1Cl | > 400 |
| Nc1nc(O)c2nc(N3CCCCC3)n(COCCO)c2n1 | 250 (≈ 811 µM) |
| CC(=O)OCCOCn1cnc2c(Cl)nc(N)nc21 | 55 (≈ 193 µM) |
| O=c1[nH]c(=O)n(COCCO)cc1/C=C/Br | > 200 |

Test system: not listed separately
Assay: Inhibitory concentration required to reduce incorporation of 2-deoxyuridine (dUrd) into DNA of Primary Rabbit kidney (PRK) cell cultures
Type: functional
Settings: Oryctolagus cuniculus, read-out: ID50 (the source's name)

| Structure (SMILES) | IC50 [µg/mL] |
| --- | --- |
| O=c1[nH]c(=O)n(COCCO)cc1[N+](=O)[O-] | > 400 |
| O=c1[nH]c(=O)n(COCCO)cc1Cl | > 400 |
| Nc1nc(O)c2nc(N3CCCCC3)n(COCCO)c2n1 | 333 (≈ 1080 µM) |
| O=c1[nH]c(=O)n(COCCO)cc1/C=C/Br | > 400 |

Test system: Vesicular stomatitis virus
Assay: Concentration required to reduce cytopathogenicity of Vesicular stomatitis virus by 50% in primary rabbit kidney (PRK) cells
Type: functional
Settings: not given

| Structure (SMILES) | ID50 [µg/mL] |
| --- | --- |
| Nc1nc2c(nc(O)n2COCCO)c(=O)[nH]1 | >400 |
| Nc1nc(Cl)c2ncn(COCCO)c2n1 | >400 |
| Nc1nc2c(ncn2COCCO)c(=O)[nH]1 [ACYCLOVIR] | >400 |
| Nc1nc(O)c2nc(N3CCCCC3)n(COCCO)c2n1 | >400 |
| CC(=O)OCCOCn1cnc2c(Cl)nc(N)nc21 | >400 |

Test system: not listed separately
Assay: Ratio of ID50 for dThd or dUrd incorporation to ID50 for HSV-1, HSV-2 or VV(whatever was lowest)
Type: functional
Settings: not given

| Structure (SMILES) | Antiviral index |
| --- | --- |
| Nc1nc2c(nc(O)n2COCCO)c(=O)[nH]1 | 3.2 |
| Nc1nc(Cl)c2ncn(COCCO)c2n1 | 25 |
| Nc1nc2c(ncn2COCCO)c(=O)[nH]1 [ACYCLOVIR] | 300 |
| Nc1nc(O)c2nc(N3CCCCC3)n(COCCO)c2n1 | 3.5 |
| CC(=O)OCCOCn1cnc2c(Cl)nc(N)nc21 | 2.7 |
